Data reported in patent US20220332699A1 (SAGE THERAPEUTICS, INC., priority 2019, published 2022).

Key:
[1] = Compound stability in cryopreserved human hepatocytes; type: in vitro ADME; conditions: pooled cryopreserved human hepatocytes, read-out: Human Hep Clint
Description: Pooled cryopreserved human hepatocytes from 10 donors were obtained from BioreclamationIVT (Cat No. X008001, Lot MMN). Test compounds (20 μL of 1 mM stock solution in DMSO) and control compounds 7-ethoxycoumarin and 7-hydroxycoumarin (20 μL of 3 mM stock solutions in DMSO) were diluted with 380 μL of 45% MeOH/H2O to obtain 50 μM solutions of test compound and 150 μM solutions of control compounds. Then 50 μL of these respective solutions were mixed with 450 μL of pre-warmed Williams' Medium E to obtain 5 μM test compound and 15 μM control compound solutions; and in duplicate 10 μL of these solutions were added to appropriate wells in a 96-well plate corresponding to incubation times T0, T15, T30, T60 and T90 and kept at 37° C. Cryopreserved human hepatocytes were thawed, isolated and suspended in Williams' Medium E, then diluted with pre-warmed William' Medium E to a concentration of 0.625×10^6 cells/mL. The reaction was started by aliquoting 40 μL of the hepatocytes into the 96-well plates containing 10 μL of the test and control compounds and incubated at 37° C. with 5% CO2. Stop solution (acetonitrile containing 200 ng/mL tolbutamide and labetalol as internal standards) was added at the requisite time (15, 30, 60, or 90 minutes). Hepatocytes were not added to the T0 samples, which were rather directly treated with stop solution. Medium control (MC) sample plates (T0-MC and T90-MC) were incubated in identical fashion as for the test samples, but without addition of hepatocytes and stop solution was added at the requisite times. The plates were vortexed immediately after addition of stop solution and placed on a plate shaker at 500 rpm for 10 min, then centrifuged at 3220×g for 20 min. The supernatants were transferred to 96-deep-well plates, sealed and stored at 4° C. until LC-MS-MS analysis. The concentration of compound remaining was determined by LC-MS-MS and plotted versus time. […]
Cutoff values determined by the hepatocyte stability assay are in Table 2 below: […]

P-gp (MDR1) = assay: Compound permeability and efflux across a MDCK-MDR1 cellular membrane; type: in vitro ADME, canine; conditions: dog, pH 7.4, MDCK-MDR1 cell monolayer; for Papp A→B at 2.5 h, 2 µM: A to B; for efflux ratio at 2.5 h, 2 μM: read-out: MDCK Effux Ratio (B:A/A:B)
Description: MDR1-MDCKII cells (obtained from Piet Borst at the Netherlands Cancer Institute) were seeded onto […] (PET) in 96-well BD insert systems at 2.5×10^5 cells/mL and grown for 4-7 days until confluent cell monolayer formation.
Transport buffer for test compound was HBSS with 10 mM Hepes (pH 7.4±0.05) with or without 1% BSA and with or without GF120918. Transport buffer for reference compound was HBSS with 10 mM Hepes (pH 7.4±0.05) with or without GF120918. Test and reference compounds (digoxin, nadolol and metoprolol) were diluted with transport buffer from stock solution to a concentration of 2 μM (DMSO<1%) and applied to the apical or basolateral side of the cell monolayer. Permeation of the test compounds from A to B direction or B to A direction was determined in triplicate with and without P-gp inhibitor (GF120918, 10 μM). Digoxin was tested at 10 μM in the presence or absence of 10 μM GF120918 bi-directionally as well, while nadolol and metoprolol were tested at 2 μM in the absence of GF120918 in A to B direction in duplicate. The plate was incubated for 2.5 h in a CO2 incubator at 37±1° C., with 5% CO2 at saturated humidity without shaking. Test and reference compounds were quantified by LC/MS/MS analysis based on the peak area ratio of analyte/IS.
Six wells per 96-well plate were selected for the lucifer yellow rejection assay to determine the cell monolayer integrity. Thus, 75 μL of 100 μM lucifer yellow in transport buffer and 250 μL transport buffer were added to apical and basolateral chambers, respectively. The plate was incubated for 150 min at 37° C. with 5% CO2 and 95% relative humidity without shaking. After 150 minutes incubation, 20 μL of lucifer yellow samples were taken from the apical sides, followed by the addition of 60 μL of Transport Buffer, and then 80 μL of lucifer yellow samples were taken from the basolateral sides. The relative fluorescence unit (RFU) of lucifer yellow was measured at 425/528 nm (excitation/emission) with a Envision plate reader.
The apparent permeability coefficient Papp (cm/s) was calculated using the equation: […]
wherein dCr/dt is the cumulative concentration of compound in the receiver chamber as a function of time (μM/s); Vr is the solution volume in the receiver chamber (0.075 mL on the apical side, 0.25 mL on the basolateral side); A is the surface area for the transport, i.e. 0.0804 cm^2 for the area of the monolayer; C0 is the initial concentration in the donor chamber (μM).
The efflux ratio was calculated using the equation:
Efflux Ratio=Papp(BA)/Papp(AB)

CYP46A1 = CYP46A1 (Homo sapiens, UniProt Q9Y6A2); assay: CYP46A1 Enzyme Assay 2 (testosterone substrate, HPLC-MS); type: biochemical; conditions: read-out: IC50 (CYP46A1 inhibitory activity)
CYP46A1, sequence (Q9Y6A2 whole entry): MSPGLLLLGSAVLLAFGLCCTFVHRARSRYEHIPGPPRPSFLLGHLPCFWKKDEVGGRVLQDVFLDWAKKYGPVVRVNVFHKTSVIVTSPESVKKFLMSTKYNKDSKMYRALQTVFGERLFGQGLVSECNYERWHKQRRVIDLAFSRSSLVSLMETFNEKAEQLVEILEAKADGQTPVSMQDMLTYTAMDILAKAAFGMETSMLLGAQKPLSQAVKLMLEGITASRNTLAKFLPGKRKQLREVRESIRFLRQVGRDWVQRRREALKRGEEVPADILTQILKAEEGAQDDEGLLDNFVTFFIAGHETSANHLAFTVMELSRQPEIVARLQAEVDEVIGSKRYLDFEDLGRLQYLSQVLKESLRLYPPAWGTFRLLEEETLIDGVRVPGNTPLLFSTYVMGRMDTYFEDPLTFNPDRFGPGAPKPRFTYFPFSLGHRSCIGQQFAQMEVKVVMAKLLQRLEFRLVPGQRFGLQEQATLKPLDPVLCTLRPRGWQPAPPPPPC
How it was run: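 CYP46A1 (5 μM final) with testosterone ([…] final) preincubated with compound 30 min at 37° C, reaction started with NADPH-generating system and run 15 min at 37° C. Quenched in methanol containing diclofenac internal standard; product read by HPLC-MS.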

Mouse pharmacokinetics = type: in vivo; conditions: 30 mg/kg PO
Description: Compound A6 was evaluated in a mouse pharmacokinetics (PK) study. The compound was dosed at 30 mg/kg PO to 3 male CD-1 mice, formulated as a solution in 30% hydroxypropyl beta-cyclodextran, with a dosing volume of 5 ml/kg. Plasma samples were collected at 0.25, 0.50, 1.0, 2.0, 4.0, 8.0 and 24 h post-dose. In 2 separate groups with 3 mice/group, Compound A6 was dosed at 30 mg/kg, PO and plasma and brain samples were collected at 0.5 and 2.0 h post-dose. […] The brain to plasma ratio at 0.25 and 2.0 h was 0.39 and 0.41, respectively.

| SMILES | CLint scaled at 1 µM [1] [mL/min/kg] | Papp A→B at 2.5 h, 2 µM (P-gp (MDR1)) [×10⁻⁶ cm/s] | efflux ratio at 2.5 h, 2 μM (P-gp (MDR1)) | IC50 (CYP46A1) [µM] | Kp at 0.25 h (Mouse pharmacokinetics; CD-1, mouse, brain and plasma, mice, at 0.25 h, read-out: brain to plasma ratio) | Kp at 2 h (Mouse pharmacokinetics; CD-1, mouse, brain and plasma, mice, at 2.0 h, read-out: brain to plasma ratio) | AUC (Mouse pharmacokinetics; mouse, male CD-1 mice, plasma) [ng·h/mL] | Cmax (Mouse pharmacokinetics; mouse, male CD-1 mice, plasma) [ng/mL] | half-life (Mouse pharmacokinetics; mouse, male CD-1 mice, plasma) [min] |
| --- | --- | --- | --- | --- | --- | --- | --- | --- | --- |
| N#CC1(Cc2ccccc2)CCN(C(=O)c2cccnc2-c2ccncc2)CC1 [Compound A32, 1-([2,4′-bipyridine]-3-carbonyl)-4-benzylpiperidine-4-carbonitrile] | < 18 | 28 | 1.2 | < 0.1 | – | – | – | – | – |
| N#CC1(Cc2ccc(F)cc2)CCN(C(=O)c2cccnc2-c2ccncn2)CC1 [Compound A6, 4-(4-fluorobenzyl)-1-(2-(pyrimidin-4-yl)nicotinoyl)piperidine-4-carbonitrile] | < 18 | 22 | 1.4 | < 0.1 | 0.39 | 0.41 | 14400 | 10700 | 57.6 |
| N#CC1(Cc2ccc(F)cc2)CCN(C(=O)c2cccnc2-c2ccncc2)CC1 [Compound A14, 1-([2,4′-bipyridine]-3-carbonyl)-4-(4-fluorobenzyl)piperidine-4-carbonitrile] | < 18 | 21 | 1.2 | < 0.1 | – | – | – | – | – |
| N#CC1(Cc2ccc(Cl)cc2Br)CCN(C(=O)c2cccnc2-c2ccncn2)CC1 [Compound A232, 4-(2-bromo-4-chlorobenzyl)-1-(2-(pyrimidin-4-yl)nicotinoyl)piperidine-4-carbonitrile] | – | – | – | < 0.1 | – | – | – | – | – |
| CC(C)(O)c1ccc(CC2(C#N)CCN(C(=O)c3cccnc3-c3ccncn3)CC2)cc1 [Compound A223, 4-(4-(2-hydroxypropan-2-yl)benzyl)-1-(2-(pyrimidin-4-yl)nicotinoyl)piperidine-4-carbonitrile] | – | – | – | 0.1 to 1 | – | – | – | – | – |
